Results reported in ChEMBL document CHEMBL1133572, “Protease inhibitors: current status and future prospects” (J Med Chem, 2000).

Columns and labels:
[1] = target: T1, Human rhinovirus A protease (Human rhinovirus sp., UniProt Q4U254); experiment: Effective concentration against human rhinovirus-14 3C.
T1 sequence (Q4U254 whole entry): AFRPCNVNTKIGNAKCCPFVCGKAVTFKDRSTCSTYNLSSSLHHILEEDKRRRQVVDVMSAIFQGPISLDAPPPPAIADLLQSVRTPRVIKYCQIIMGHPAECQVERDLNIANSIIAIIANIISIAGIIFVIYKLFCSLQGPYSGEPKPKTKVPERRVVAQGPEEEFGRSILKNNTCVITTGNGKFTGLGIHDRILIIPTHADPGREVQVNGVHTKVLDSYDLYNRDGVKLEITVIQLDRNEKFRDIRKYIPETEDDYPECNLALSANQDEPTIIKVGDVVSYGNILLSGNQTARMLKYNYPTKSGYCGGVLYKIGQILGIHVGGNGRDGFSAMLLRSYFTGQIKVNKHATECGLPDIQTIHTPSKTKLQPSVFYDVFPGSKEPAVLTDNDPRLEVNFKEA

[2] = target: T2, Human rhinovirus A protease (Human rhinovirus sp.) (UniProt Q4U254); experiment: Toxic concentration ragainst HRV-143C protease in cultured cells infected by HRV.; format: cell-based
T2 sequence (whole entry): T1 sequence (Q4U254 whole entry)

[3] = target: T1, Human rhinovirus A protease; experiment: The binding affinity against HRV-143C protease.
Plasmepsin I = Plasmepsin I (Plasmodium falciparum, UniProt P39898); experiment: Inhibitory concentration for Plasmodium falciparum plasmepsin-1.
[4] = target: Plasmepsin II (Plasmodium falciparum) (UniProt P46925); experiment: Inhibition of Plasmodium falciparum plasmepsin-2 at 10 uM
[5] = Inhibitory concentration against the live parasite in preventing hemoglobin degradation.; format: functional
Cricetinae gen. sp. [6] = experiment: Inhibitory concentration against elastase; format: functional, Cricetulus griseus; conditions: read-out: ID50 (the source's name)
Papain = Papain (Carica papaya, UniProt P00784); experiment: The apparent binding affinity against Papain; conditions: read-out: Ki app
Procathepsin L = Procathepsin L (Homo sapiens, UniProt P07711)
Cathepsin B = Cathepsin B (Homo sapiens, UniProt P07858)
Cathepsin D [7] = target: T3, Cathepsin D (Homo sapiens, UniProt P07339)
[8] = target: Neutrophil elastase (Homo sapiens) (UniProt P08246); experiment: Inhibition of elastase.
Cricetinae gen. sp. [9] = experiment: Inhibition against at the dose of 30 mg/kg after 5 hr.; format: functional, Cricetulus griseus
[10] = Half life.; format: ADME
Cricetinae gen. sp. [11] = experiment: Inhibition against at the dose of 30 mg/kg after 30 minutes.; format: functional, Cricetulus griseus; conditions: 0.5 h
[12] = oral bioavailability in dogs and monkeys.; format: ADME, organism-based, Canis lupus familiaris; conditions: dog, in vivo, read-out: Bioavailabiility
[13] = Tmax value of the compound; format: ADME
[14] = Oral bioavailability in rats at the dose of 10 mg/kg po; format: ADME, organism-based; conditions: rat, in vivo, read-out: Bioavailabiility
[15] = Cmax value in the period of 0-24 hr after dosing.; format: ADME, organism-based; conditions: in vivo
[16] = Plasma half life at the dose of 5 mg/kg iv.; format: ADME, organism-based; set-up: dose 5 mg/kg
[17] = oral bioavailability in cynomolgus monkeys; format: ADME, organism-based, Macaca fascicularis; conditions: cynomolgus monkey, in vivo, read-out: Bioavailabiility
Renin [18] = target: T4, Renin (Homo sapiens, UniProt P00797)
T4 sequence (P00797 whole entry): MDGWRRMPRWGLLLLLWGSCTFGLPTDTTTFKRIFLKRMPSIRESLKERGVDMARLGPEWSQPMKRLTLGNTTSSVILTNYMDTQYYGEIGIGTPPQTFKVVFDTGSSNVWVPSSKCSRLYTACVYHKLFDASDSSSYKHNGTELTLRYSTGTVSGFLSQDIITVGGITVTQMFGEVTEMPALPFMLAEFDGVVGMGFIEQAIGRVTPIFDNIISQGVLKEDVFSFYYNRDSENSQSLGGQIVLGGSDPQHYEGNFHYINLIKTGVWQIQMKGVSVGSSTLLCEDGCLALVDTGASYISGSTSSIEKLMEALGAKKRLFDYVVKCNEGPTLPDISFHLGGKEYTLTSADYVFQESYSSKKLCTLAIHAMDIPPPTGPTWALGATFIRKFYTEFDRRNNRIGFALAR

Cathepsin D [19] = target: T3, Cathepsin D; experiment: Inhibitory concentration against human cathepsin D.
[20] = oral bioavailability in marmosets; format: ADME, organism-based; conditions: callithrix, in vivo, read-out: Bioavailabiility
[21] = Oral bioavailability in dog; format: ADME, organism-based, Canis lupus familiaris; conditions: in vivo
[22] = Half life in dogs.; format: ADME, organism-based, Canis lupus familiaris; conditions: dog, in vivo
Pepsin A = Pepsin A (Sus scrofa, UniProt P00791); experiment: Inhibitory concentration against porcine pepsin
[23] = Cmax value of the compound; format: ADME, organism-based; conditions: in vivo
[24] = Inhibitory concentration against SAP
Cathepsin D [25] = target: T3, Cathepsin D; experiment: Inhibitory concentration against cathepsin D
Renin [26] = target: T4, Renin; experiment: Inhibitory concentration against renin..

T3 sequence (P07339 65-162 limits assumed): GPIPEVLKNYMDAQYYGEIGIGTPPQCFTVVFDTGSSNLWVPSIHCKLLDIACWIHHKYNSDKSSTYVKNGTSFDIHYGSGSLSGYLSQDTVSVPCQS
T3 sequence (P07339 169-412 limits assumed): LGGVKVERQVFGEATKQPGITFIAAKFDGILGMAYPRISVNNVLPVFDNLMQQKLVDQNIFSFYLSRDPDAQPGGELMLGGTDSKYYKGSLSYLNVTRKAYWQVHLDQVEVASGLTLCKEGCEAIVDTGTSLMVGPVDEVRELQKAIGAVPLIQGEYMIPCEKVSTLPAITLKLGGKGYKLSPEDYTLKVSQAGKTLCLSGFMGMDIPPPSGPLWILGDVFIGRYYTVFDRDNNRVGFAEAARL
Pepsin A, sequence (P00791 whole entry): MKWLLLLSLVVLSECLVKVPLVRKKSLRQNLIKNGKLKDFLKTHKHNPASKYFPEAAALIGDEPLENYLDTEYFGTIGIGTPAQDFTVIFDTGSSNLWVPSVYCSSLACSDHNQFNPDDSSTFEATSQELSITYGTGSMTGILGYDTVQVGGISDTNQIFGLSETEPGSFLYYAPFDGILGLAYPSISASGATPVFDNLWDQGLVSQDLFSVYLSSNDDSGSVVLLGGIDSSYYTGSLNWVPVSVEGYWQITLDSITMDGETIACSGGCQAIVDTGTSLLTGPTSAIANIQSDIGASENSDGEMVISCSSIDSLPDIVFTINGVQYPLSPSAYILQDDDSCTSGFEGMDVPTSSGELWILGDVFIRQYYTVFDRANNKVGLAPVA
Neutrophil elastase (Homo sapiens), sequence (P08246 whole entry): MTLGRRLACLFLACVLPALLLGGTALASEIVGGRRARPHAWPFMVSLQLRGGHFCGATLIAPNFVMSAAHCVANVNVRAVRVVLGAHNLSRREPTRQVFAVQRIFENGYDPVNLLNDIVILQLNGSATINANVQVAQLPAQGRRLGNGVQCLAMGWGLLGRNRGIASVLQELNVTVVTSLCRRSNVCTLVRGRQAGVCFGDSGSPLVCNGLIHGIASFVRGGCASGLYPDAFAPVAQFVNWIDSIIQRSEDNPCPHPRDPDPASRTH
Papain, sequence (P00784 whole entry): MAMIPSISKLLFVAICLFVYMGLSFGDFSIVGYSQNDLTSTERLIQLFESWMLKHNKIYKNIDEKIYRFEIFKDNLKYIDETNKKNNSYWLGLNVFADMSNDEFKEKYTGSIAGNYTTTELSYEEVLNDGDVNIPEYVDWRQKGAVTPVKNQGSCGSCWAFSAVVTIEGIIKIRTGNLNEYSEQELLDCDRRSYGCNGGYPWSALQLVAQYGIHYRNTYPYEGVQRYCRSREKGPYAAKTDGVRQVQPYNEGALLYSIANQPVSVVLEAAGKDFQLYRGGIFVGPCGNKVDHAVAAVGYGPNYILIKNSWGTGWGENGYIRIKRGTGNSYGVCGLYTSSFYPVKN
Plasmepsin II (Plasmodium falciparum), sequence (P46925 125-453 limits assumed): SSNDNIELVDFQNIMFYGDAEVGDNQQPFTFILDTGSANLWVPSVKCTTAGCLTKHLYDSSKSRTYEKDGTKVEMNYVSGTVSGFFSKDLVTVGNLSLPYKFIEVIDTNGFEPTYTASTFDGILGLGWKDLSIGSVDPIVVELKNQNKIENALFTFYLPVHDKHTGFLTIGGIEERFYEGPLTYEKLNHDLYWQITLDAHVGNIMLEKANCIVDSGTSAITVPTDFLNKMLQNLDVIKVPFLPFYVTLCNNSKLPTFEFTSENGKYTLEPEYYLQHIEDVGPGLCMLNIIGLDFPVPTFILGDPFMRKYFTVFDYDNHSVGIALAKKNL
Plasmepsin I, sequence (P39898 whole entry): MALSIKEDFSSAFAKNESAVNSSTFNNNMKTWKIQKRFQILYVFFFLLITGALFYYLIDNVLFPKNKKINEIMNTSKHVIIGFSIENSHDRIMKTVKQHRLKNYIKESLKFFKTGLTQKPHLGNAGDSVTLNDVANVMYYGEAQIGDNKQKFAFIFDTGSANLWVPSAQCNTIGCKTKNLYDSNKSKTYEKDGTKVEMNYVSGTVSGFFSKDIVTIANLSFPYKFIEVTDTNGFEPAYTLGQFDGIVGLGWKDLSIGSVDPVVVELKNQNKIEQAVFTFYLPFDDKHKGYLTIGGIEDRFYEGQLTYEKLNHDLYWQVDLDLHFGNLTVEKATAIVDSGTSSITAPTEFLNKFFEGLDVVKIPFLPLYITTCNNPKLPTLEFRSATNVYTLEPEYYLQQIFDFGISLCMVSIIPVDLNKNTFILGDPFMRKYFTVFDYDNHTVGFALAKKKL
Procathepsin L, sequence (P07711 whole entry): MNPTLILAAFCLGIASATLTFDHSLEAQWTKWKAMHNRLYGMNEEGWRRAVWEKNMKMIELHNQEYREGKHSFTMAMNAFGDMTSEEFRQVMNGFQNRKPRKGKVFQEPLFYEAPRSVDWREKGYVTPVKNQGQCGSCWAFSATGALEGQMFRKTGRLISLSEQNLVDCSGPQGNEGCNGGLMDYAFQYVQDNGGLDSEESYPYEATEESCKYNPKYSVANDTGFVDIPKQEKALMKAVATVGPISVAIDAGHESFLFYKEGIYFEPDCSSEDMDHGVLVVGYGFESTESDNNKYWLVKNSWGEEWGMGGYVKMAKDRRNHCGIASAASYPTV

## NC(=O)c1ccc2c(c1)C(=O)C(=O)N2Cc1ccc2ccsc2c1
[1]
  EC50: > 5600 nM
[2]
  TC50: 5600 nM
[3]
  Ki: 2 nM

## CCCCC(O)[C@H](C)C[C@H](O)[C@H](CC1CCCCC1)NC(=O)[C@H](CC(C)C)NC(=O)[C@H](Cc1ccccc1)NC(=O)OC(C)(C)C (stereo partly specified)
Plasmepsin I
  IC50: 500 nM
[4]
  inhibition: 22%
[5]
  IC50: 5000 nM

## CC(C)(C)C(=O)Oc1ccc(S(=O)(=O)Nc2ccccc2C(=O)NCC(=O)O)cc1
Cricetinae gen. sp. [6]
  ED50: 0.082 mg/kg

## CC(C)C[C@H](NC(=O)OCc1ccccc1)C(=O)NCC(=O)CNC(=O)[C@H](CC(C)C)NC(=O)OCc1ccccc1
Papain
  Ki: > 10000 nM
Procathepsin L
  Ki: 340 nM
Cathepsin B
  Ki: 1300 nM

## COc1cc(Br)c(OCC(=O)NC(Cc2cccc(Oc3ccccc3)c2)[C@@H](O)CN(CCc2ccc(Cl)cc2Cl)C(=O)CCN2C(=O)c3ccccc3C2=O)cc1OC (stereo partly specified)
Cathepsin D [7]
  Ki: 0.7 nM

## CC[C@@H](NC(=O)N1C(=O)[C@](C)(CC)[C@@H]1Oc1ccc(CC(=O)O)cc1)c1ccccc1
[8]
  K obs / 1: 91000 M⁻¹ s⁻¹
Cricetinae gen. sp. [9]
  inhibition in vivo at 30 mg/kg: 51%
[10]
  half-life: 5 h
Cricetinae gen. sp. [11]
  inhibition in vivo at 30 mg/kg: 98%

## CN1CCN=C1c1cccc(Oc2nc(Oc3cc(C(=N)N)ccc3O)c(F)c(N(C)CC(=O)O)c2F)c1 [FIDEXABAN]
[12]
  bioavailability: 20%

## CC(C)c1nc(CN(C)C(=O)N[C@H](C(=O)N[C@@H](Cc2ccccc2)C[C@H](O)[C@H](Cc2ccccc2)NC(=O)OCc2cncs2)C(C)C)cs1 [RITONAVIR]
[13]
  Tmax: 2 h
[14]
  bioavailability: 78%
[15]
  Cmax: 2600 nM
[16]
  half-life: 1.2 h

## CNC1CCN(C(=O)C[C@@H](Cc2ccccc2)C(=O)N[C@@H](CSC)C(=O)N[C@@H](CC2CCCCC2)[C@@H](O)C(=O)OC(C)C)CC1
[17]
  bioavailability: > 27%
Renin [18]
  IC50: 4 nM
Cathepsin D [19]
  IC50: 550 nM
[20]
  bioavailability: 59%
[21]
  bioavailability: 60%
[22]
  half-life: 2.4 h
Pepsin A
  IC50: 2100 nM

## COc1cc(C(C)C)c2c(c1)S(=O)(=O)N(COC(=O)c1c(Cl)ccc(OCCN3CCOCC3)c1Cl)C2=O
[23]
  Cmax: 470 ng/mL

## CCCC[C@@H](C(=O)N[C@@H](CC1CCCCC1)[C@@H](O)C[C@H](C(=O)NCCN(C)C)C(C)C)N1CCN(C(=O)N2CCN(C)CC2)[C@H](Cc2ccccc2)C1=O
[24]
  IC50: 6.2 nM
Cathepsin D [25]
  IC50: 58000 nM
Renin [26]
  IC50: > 100 nM
